Ten compounds from patent US9556179B2 (BRISTOL-MYERS SQUIBB COMPANY, priority 2012, dated 2017) can be followed below.

Each structure is given as a SMILES string.

One assay deals with CK1ε (Homo sapiens (Human), UniProt P49674). The experiment in a line: CK1ε kinase assay (Caliper LABCHIP electrophoretic separation of fluoresceinated peptide substrate and product). To be noted: 200 pM enzyme, 50 μM ATP, 22 hours at room temperature. Format: biochemical. The gist of the method: (§1)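 Compounds, taken from 10 mM DMSO stocks, are titrated at eleven concentrations. Kinase reactions proceed for 22 hours at room temperature and are quenched with EDTA. Substrate and product are resolved electrophoretically, and IC50 values are fitted by non-linear regression.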
Sequence of CK1ε (P49674 whole entry): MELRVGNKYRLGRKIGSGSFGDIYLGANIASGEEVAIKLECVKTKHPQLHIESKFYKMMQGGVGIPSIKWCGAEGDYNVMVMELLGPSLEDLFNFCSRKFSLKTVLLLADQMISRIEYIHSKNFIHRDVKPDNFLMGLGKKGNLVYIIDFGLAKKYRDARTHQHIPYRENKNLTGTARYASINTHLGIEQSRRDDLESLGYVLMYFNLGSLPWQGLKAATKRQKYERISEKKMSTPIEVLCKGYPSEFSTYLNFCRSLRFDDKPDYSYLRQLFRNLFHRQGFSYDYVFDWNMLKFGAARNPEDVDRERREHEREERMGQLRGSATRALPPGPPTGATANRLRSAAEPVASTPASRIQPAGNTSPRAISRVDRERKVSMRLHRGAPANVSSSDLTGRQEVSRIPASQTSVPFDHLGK

For a further assay, the target named is CK1δ (Homo sapiens (Human), UniProt P48730). In words: CK1δ kinase assay (Caliper LABCHIP electrophoretic separation of fluoresceinated peptide substrate and product). Format: biochemical. To be noted: 200 pM enzyme, 50 μM ATP, 22 hours at room temperature. Put shortly:
as §1

Sequence of CK1δ (P48730 whole entry): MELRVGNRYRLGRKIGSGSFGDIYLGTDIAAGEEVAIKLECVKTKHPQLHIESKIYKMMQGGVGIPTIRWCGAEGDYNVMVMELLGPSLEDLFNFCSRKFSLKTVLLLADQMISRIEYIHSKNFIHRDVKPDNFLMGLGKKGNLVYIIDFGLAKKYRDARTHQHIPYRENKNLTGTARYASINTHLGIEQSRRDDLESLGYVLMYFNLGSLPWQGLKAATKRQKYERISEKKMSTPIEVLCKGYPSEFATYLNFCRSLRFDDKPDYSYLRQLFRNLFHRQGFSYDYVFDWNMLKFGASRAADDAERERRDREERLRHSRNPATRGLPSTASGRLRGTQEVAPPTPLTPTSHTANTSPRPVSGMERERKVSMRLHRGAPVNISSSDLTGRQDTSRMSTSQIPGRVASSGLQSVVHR

As usually defined, the IC50 is the concentration needed to halve the response being measured. Read a low IC50 as inhibition by little substance. `Cn1ccc(C(=O)N2CCC(n3cnc(-c4ccc(F)cc4)c3-c3ccc4nc(NC(=O)c5ccnc(F)c5)cn4n3)CC2)n1` [Compound 60, 2-fluoro-N-(6-(4-(4-fluorophenyl)-1-(1-(1-methyl-1H-pyrazole-3-carbonyl)piperidin-4-yl)-1H-imidazol-5-yl)imidazo[1,2-b]pyridazin-2-yl)isonicotinamide]: the concentration for half-maximal inhibition (IC50) is 0.545 nM at CK1ε and 0.213 nM at CK1δ.
The like results for `Cc1nc(-c2cccnc2)sc1C(=O)Nc1cn2nc(-c3c(-c4ccc(F)cc4)nc4ccccn34)ccc2n1` [Compound 218, N-(6-(2-(4-fluorophenyl)imidazo[1,2-a]pyridin-3-yl)imidazo[1,2-b]pyridazin-2-yl)-4-methyl-2-(pyridin-3-yl) thiazole-5-carboxamide] were, in that order, 178 nM and 60.7 nM.
In the case of `O=C(Nc1cn2nc(-c3c(-c4ccc(F)cc4)nc4ccccn34)ccc2n1)c1csnn1` [Compound 176, N-(6-(2-(4-fluorophenyl)imidazo[1,2-a]pyridin-3-yl)imidazo[1,2-b]pyridazin-2-yl)-1,2,3-thiadiazole-4-carboxamide], the IC50 against CK1ε stood at 47.4 nM; against CK1δ, 5.68 nM.
The like results for `Cc1nc(-c2ccc(F)cc2)c(-c2ccc3nc(NC(=O)c4ccnc(F)c4)cn3n2)n1C1CCN(C[C@@H](O)C(F)(F)F)CC1` [Compound 142, (R)-2-fluoro-N-(6-(4-(4-fluorophenyl)-2-methyl-1-(1-(3,3,3-trifluoro-2-hydroxypropyl)piperidin-4-yl)-1H-imidazol-5-yl)imidazo[1,2-b]pyridazin-2-yl)isonicotinamide] were, in that order, 2.55 nM and 0.414 nM.
The like results for `Cc1cc(-c2nc(C)n(CCF)c2-c2ccc3nc(NC(=O)c4ccnc(F)c4)cn3n2)ccc1F` [Compound 299, 2-fluoro-N-(6-(4-(4-fluoro-3-methylphenyl)-1-(2-fluoroethyl)-2-methyl-1H-imidazol-5-yl)imidazo[1,2-b]pyridazin-2-yl) isonicotinamide] were, in that order, 0.76 nM and 0.186 nM.
Consider `O=C(CN1CCOCC1)Nc1cn2nc(-c3c(-c4ccc(F)cc4)nc4ccccn34)ccc2n1` [Compound 221, N-(6-(2-(4-fluorophenyl)imidazo[1,2-a]pyridin-3-yl)imidazo[1,2-b]pyridazin-2-yl)-2-morpholinoacetamide], for which the IC50 against CK1ε stood at 42.2 nM; on CK1δ, 4.06 nM.
The like results for `Cc1cc(C(=O)N2CCC(n3cnc(-c4ccc(F)cc4)c3-c3ccc4nc(NC(=O)c5ccnc(F)c5)cn4n3)CC2)no1` [Compound 51, 2-fluoro-N-(6-(4-(4-fluorophenyl)-1-(1-(5-methylisoxazole-3-carbonyl)piperidin-4-yl)-1H-imidazol-5-yl)imidazo[1,2-b]pyridazin-2-yl)isonicotinamide] were, in that order, 2.58 nM and 0.24 nM.
The like results for `Cc1nc(-c2ccc(F)cc2)c(-c2ccc3nc(NC(=O)c4cnn[nH]4)cn3n2)n1C` [Compound 370, N-(6-(4-(4-fluorophenyl)-1,2-dimethyl-1H-imidazol-5-yl)imidazo[1,2-b]pyridazin-2-yl)-1H-1,2,3-trizole-4-carboxamide] were, in that order, 16.2 nM and 1.12 nM.
As to `Cc1nc(-c2ccc(F)cc2)c(-c2ccc3nc(NC(=O)c4ccc5ccncc5c4)cn3n2)n1C` [Compound 313, N-(6-(4-(4-fluorophenyl)-1,2-dimethyl-1H-imidazol-5-yl)imidazo[1,2-b]pyridazin-2-yl)isoquinoline-7-carbox-amide], the results for the IC50 on CK1ε and on CK1δ were 1.89 nM and 0.691 nM, respectively.
For `O=C(Nc1cn2nc(-c3c(-c4ccc(F)cc4)nc4n3CCN(C(=O)C3CC3)C4)ccc2n1)c1ccnc(F)c1` [Compound 469, N-(6-(7-(Cyclopropanecarbonyl)-2-(4-fluorophenyl)-5,6,7,8-tetrahydroimidazo[1,2-a]pyrazin-3-yl)imidazo[1,2-b]pyridazin-2-yl)-2-fluoroisonicotinamide], the IC50 against CK1ε worked out at 12.9 nM; on CK1δ, 2.3 nM.
